Legend:
[1] = tested on: morningglory; experiment: Test A postemergence; format: in vivo, Ipomoea spp.
Summary of the method: (§1)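 Pre- and postemergence greenhouse test; loam+sand; cpd in non-phytotox. solvent/surfactant; post at 1–2 leaf, 2–10 cm; visual score ~10 d, 0 = none, 100 = complete control.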

[2] = tested on: waterhemp; experiment: Test C preemergence; format: in vivo, Amaranthus rudis; conditions: for Waterhemp plant response rating: scale 0 to 100 (0 no effect, 100 complete control)
Excerpt: (§2) Seeds of plant species selected from blackgrass (Alopecurus myosuroides), ryegrass, Italian (Italian ryegrass, Lolium multiflorum), wheat (winter wheat, Triticum aestivum), galium (catchweed bedstraw, Galium aparine), corn (Zea mays), crabgrass, large (large crabgrass, Digitaria sanguinalis), foxtail, giant (giant foxtail, Setaria faberii), johnsongrass (Sorghum halepense), lambsquarters (Chenopodium album), morningglory (Ipomoea coccinea), nutsedge, yellow (yellow nutsedge, Cyperus esculentus), pigweed (redroot pigweed, Amaranthus retroflexus), ragweed (common ragweed, Ambrosia elation), soybean (Glycine max), barnyardgrass (Echinochloa crus-galli), oilseed rape (Brassica napus), waterhemp (common waterhemp, Amaranthus rudis), oat, wild (wild oat, Avena fatua), kochia (Kochia scoparia), Surinam grass (Brachiaria decumbens), foxtail, green (green foxtail, Setaria viridis), goosegrass (Eleusine indica), bromegrass, downy (downy bromegrass, Bromus tectorum), nightshade (eastern black nightshade, Solanum ptycanthum), cocklebur (common cocklebur, Xanthium strumarium), cupgrass, woolly (woolly cupgrass, Eriochloa villosa), bermudagrass (Cynodon dactylon), sunflower, (common oilseed sunflower, Helianthus annuus), Russian thistle (Salsola kali), and velvetleaf (Abutilon theophrasti) were planted into a blend of loam soil and sand and treated preemergence with test chemicals formulated in a non-phytotoxic solvent mixture which included a surfactant.
(§3) At the same time, plants selected from these crop and weed species and also chickweed (common chickweed, Stellaria media), canarygrass (littleseed canarygrass, Phalaris minor), and deadnettle (henbit deadnettle, Lamium amplexicaule), were planted in pots containing Redi-Earth® planting medium (Scotts Company, 14111 Scottslawn Road, Marysville, Ohio 43041) comprising spaghnum peat moss, vermiculite, wetting agent and starter nutrients and treated with postemergence applications of test chemicals formulated in the same manner. Plants ranged in height from 2 to 18 cm (1- to 4-leaf stage) for postemergence treatments. Treated plants and controls were maintained in a greenhouse for 13 to 15 days, after which time all species were compared to controls and visually evaluated. Plant response ratings, summarized in Table C, are based on a scale of 0 to 100 where 0 is no effect and 100 is complete control. A dash (-) response means no test result.

[3] = tested on: crabgrass, large; experiment: Test C preemergence; format: in vivo, Digitaria sanguinalis; conditions: for Crabgrass, Large plant response rating: scale 0 to 100 (0 no effect, 100 complete control)
Excerpt: as §2, §3

[4] = tested on: foxtail, giant; experiment: Test A postemergence; format: in vivo, Setaria faberii
Summary of the method: as §1

[5] = tested on: foxtail, giant; experiment: Test C preemergence; format: in vivo, Setaria faberii; conditions: for Foxtail, Giant plant response rating: scale 0 to 100 (0 no effect, 100 complete control)
Excerpt: as §2, §3

[6] = tested on: ducksalad; experiment: Test B flood; format: in vivo, Heteranthera limosa; conditions: 250 g ai/ha, visual rating on 0 to 100 scale (0 no effect, 100 complete control), 13 to 15 days
Summary of the method: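 Visual ratings (0 = no effect, 100 = complete control) versus untreated controls were taken 13–15 days after treatment of greenhouse plants. Treatment was added to paddy water held at 3 cm depth on 2-leaf-stage seedlings.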

[7] = tested on: foxtail, giant; experiment: Test A preemergence; format: in vivo, Setaria faberii
Summary of the method: as §1

[8] = tested on: oat, wild; experiment: Test C postemergence; format: in vivo, Avena fatua; conditions: for Plant response rating, Oat, Wild: postemergence
Excerpt: as §2, §3

[9] = tested on: foxtail, giant; experiment: Test C postemergence; format: in vivo, Setaria faberii; conditions: for Plant response rating, Foxtail, Giant: postemergence
Excerpt: as §2, §3

[10] = tested on: johnsongrass; experiment: Test C postemergence; format: in vivo, Sorghum halepense; conditions: for Plant response rating, Johnsongrass: postemergence
Excerpt: as §2, §3

[11] = tested on: chickweed; experiment: Test C postemergence; format: in vivo, Stellaria media; conditions: for Plant response rating, Chickweed: postemergence
Excerpt: as §2, §3

[12] = Postemergence, 500 g ai/ha, 0 to 100 scale (0 no effect, 100 complete control)
[13] = postemergence, 125 g ai/ha, about 10 days, visual rating on 0 to 100 scale (0 no effect, 100 complete control)
[14] = Preemergence, 16 g ai/ha, scale 0 to 100
[15] = preemergence, 31 g ai/ha, visual rating, 13 to 15 days
[16] = preemergence, 62 g ai/ha, 13 to 15 days
[17] = preemergence, 125 g ai/ha, 13 to 15 days, scale 0 to 100, 0 = no effect, 100 = complete control
[18] = Postemergence, 31 g ai/ha, scale 0 to 100
[19] = 250 g ai/ha, scale 0 to 100 (0 no effect, 100 complete control)
[20] = 62 g ai/ha, scale 0 to 100, 0 no effect, 100 complete control
[21] = 125 g ai/ha, scale 0 to 100, 0 no effect, 100 complete control
[22] = Postemergence, 1000 g ai/ha, visual rating after approx. 10 days, 0 to 100 scale (0 no effect, 100 complete control)

CCNC(=O)c1cc(CCF)n(Cc2ccnc(C(F)(F)F)c2)n1 [Compound 178]
Morningglory plant response rating [1, 12]: 100
Morningglory plant response rating [1, 13]: 70
Plant response rating, Waterhemp [2, 14]: 65
Waterhemp plant response rating [2, 15]: 90
Waterhemp plant response rating [2, 16]: 100
Plant response rating, Waterhemp [2, 17]: 100
Plant response rating, Crabgrass, Large [3, 14]: 30
Crabgrass, Large plant response rating [3, 15]: 100
Crabgrass, Large plant response rating [3, 16]: 95
Plant response rating, Crabgrass, Large [3, 17]: 100
Foxtail, Giant plant response rating [4, 12]: 90
Foxtail, Giant plant response rating [4, 13]: 70
Plant response rating, Foxtail, Giant [5, 14]: 5
Foxtail, Giant plant response rating [5, 15]: 65
Foxtail, Giant plant response rating [5, 16]: 90
Plant response rating, Foxtail, Giant [5, 17]: 100
Plant response rating, Ducksalad [6]: 95
Foxtail, Giant plant response rating (0 to 100 scale) ([7]; preemergence, 125 g ai/ha, visual injury approx. 10 days after treatment): 90
Foxtail, Giant plant response rating ([7]; preemergence, 500 g ai/ha, visual injury after approx. 10 days, 0 to 100 scale (0 no effect, 100 complete control)): 100

CCc1cc(C(=O)NCC(F)(F)F)nn1Cc1cccc(OC(F)(F)F)c1 [Compound 20]
Oat, Wild plant response rating [8, 18]: 15
Plant response rating, Oat, Wild [8, 19]: 20
Plant response rating, Oat, Wild [8, 20]: 15
Plant response rating, Oat, Wild [8, 21]: 20
Morningglory plant response rating [1, 22]: 100
Foxtail, Giant plant response rating [4, 22]: 70
Foxtail, Giant plant response rating [9, 18]: 10
Plant response rating, Foxtail, Giant [9, 19]: 15
Plant response rating, Foxtail, Giant [9, 20]: 10
Plant response rating, Foxtail, Giant [9, 21]: 10
Johnsongrass plant response rating [10, 18]: 0
Plant response rating, Johnsongrass [10, 19]: 10
Plant response rating, Johnsongrass [10, 20]: 0
Plant response rating, Johnsongrass [10, 21]: 5
Foxtail, Giant plant response rating ([7]; Preemergence, 1000 g ai/ha, 0 to 100 scale, 0 no effect, 100 complete control): 100
Chickweed plant response rating [11, 18]: 45
Plant response rating, Chickweed [11, 19]: 75
Plant response rating, Chickweed [11, 20]: 45
Plant response rating, Chickweed [11, 21]: 75
